Measured values published in US8715718B2, “Extracellular matrix production from nanoscale substrate” (Rutgers, The State University of New Jersey, priority 2006, dated 2014).

Experiments:
[1] = tested on: Human foreskin fibroblasts, HFF; assay: Fibronectin matrix assembly by HFF, immunofluorescence and image analysis; assay type: cell-based
Procedure: (§1) Labtek chamber slides (Nalge Nunc International, Rochester, N.Y.) were coated overnight at 4° C. with FNf-ANPs or FNf as described above to attain equivalent display with FNf. […] Fibroblasts were seeded at densities and incubated for times described in each figure legend. […] Samples were then incubated with primary antibodies in blocking buffer (3% BSA) for 1 hour, washed, and further incubated with the appropriate secondary antibodies for 1 hour. Where indicated, cells were also incubated with TexasRed X- or fluoroscein-conjugated phalloidin to visualize F-actin. Cells were examined using a Leica SP/2 Confocal Laser Scanning Microscope.

fibroblasts [2] = assay: Cell morphology on ligand-ANC (FITC-phalloidin); assay type: cell-based, human
Procedure: Cell morphology was examined as a function of differential ligand presentation and nanocarrier size at two time points. Passively adsorbed substrates were prepared as described above. Fibroblasts that were serum deprived at least 12 hours before hand were seeded in serum free media for 1 or 5 hours at 37° C. Substrates were washed after the designated incubation time, and fixed with 3.7% formaldehyde for 15 minutes at room temperature. Substrates were washed again and permeabilized with Triton-X 100 for 15 minutes at room temperature. Substrates were washed, blocked with 1% BSA for 15 minutes at room temperature, washed again, and stained with FITC phalloidin (Molecular Probes) for 20 minutes. Substrates were washed and stored at 4° C. until image acquisition. Images were acquired with a Leica TCS SP/2 at 63×.
The effects of ligand presentation on cytoskeletal morphology were examined by labeling F-actin at two different time points (FIG. 7b). In that experiment, cell morphology was examined of fibroblasts cultured at the optimal ligand density for cell attachment (2.2 μg/cm^2) at 1 hour (left column) and 5 hours (right column) using FITC-phalloidin.

fibroblasts [3] = assay: Cell attachment to ligand-ANC (hexosaminidase assay); assay type: cell-based, human; details: 1 hour, equal ligand density, differential presentation
Procedure: To quantify cell attachment to ligand-ANC, 96-well non-tissue culture dishes were passively coated overnight at 4° C. with varying ligand density and presentation as described above. Wells were washed with PBS and blocked with 1% bovine serum albumin. After washing, fibroblasts were seeded at 25,000 cells/well and incubated for 1 hour at 37° C. Substrates were washed with PBS to remove unbound cells. Adhered cells were quantified using the hexosaminidase assay. Briefly, a substrate mixture composed of 1 part […] and 1 part 7.5 mM [3-nitrophenyl N-acetyl [3-D glucosaminide (Sigma) in 0.1 M citrate buffer (pH 5.0), was added to each well and incubated for 90 minutes at 37° C. The reaction was terminated with a mixture of 50 mM glycine (Sigma) and 5 mM EDTA (Sigma) (pH 10.4). The absorbance was read at 405 nm on a multiwell plate reader.
Cell attachment is one of the earliest cell anchorage responses to substrates. To examine if the nanoscale presentation of ligand could alter early cell binding and attachment events, fibroblasts were seeded on ligand-adsorbed substrates of three different ligand densities with different presentations (FIG. 7a). […] Cells were incubated for 1 hour, unbound cells were washed, and the number of adherent cells was quantified using the hexosaminidase assay. […]

[4] = tested on: Human foreskin fibroblasts, HFF; assay: Cell adhesion assay (hexosaminidase); assay type: cell-based
Procedure: To quantify cell attachment to FNf-ANPs, 96-well non-tissue culture dishes were coated overnight at 4° C. with FNf-ANPs or FNf as described above. Wells were washed with PBS and blocked with 1% bovine serum albumin. After washing with PBS, HFF were plated at 2.5×10^4 cells/well and incubated for 60 minutes at 37° C. Medium and unbound cells were removed by inversion of the plate and two washes with PBS. Quantification of the number of adherent cells was performed using the hexosaminidase assay. Briefly, substrate composed of a 1:1 mixture of 0.5% Triton-X 100 and 7.5 mM β-nitrophenyl N-acetyl β-D glucosaminide in 0.1 M citrate buffer, pH 5.0, was added to each well and incubated for 90 minutes at 37° C. The reaction was terminated with 50 mM glycine/5 mM EDTA, pH 10.4 and the absorbance read at 405 nm on a multiwell plate reader.
(§2) To analyze cellular morphology, shape factors were quantified for all conditions.

[5] = tested on: Human foreskin fibroblasts, HFF; assay: Cell morphology by F-actin staining and shape factor; assay type: cell-based
Procedure: as §1
To characterize the effect of nanoparticle display of FNf on early cellular responses, adhesion and morphology were examined. […] Next, we extended the culture time of human foreskin fibroblasts (“HFF”) on FNf-ANPs or equivalent FNf, and evaluated cellular morphology. HFF (2.3×10^4 cells/cm^2) were cultured for 5 hours on surfaces prepared as described in Materials and Methods, then stained for F-actin with Texas Red X-conjugated phalloidin. Bar, 40 μm.
as §2

[6] = tested on: Human foreskin fibroblasts; assay: Imaging of fibronectin matrix assembly as a function of carrier size and ligand density; assay type: cell-based; details: serum-free, 24 hours
Procedure: Substrates with equal levels of ligand but differential presentation were adsorbed in 8-well Labtek chamber slides overnight at 4° C. Substrates were then washed generously with PBS and blocked with BSA for 1 hour at 37° C. Fibroblasts were serum-starved at least 12 hours prior to trypsinization and re-plated at a density of 35,000 cells per well in serum free media. Cells were then cultured for 24 hours at 37° C. After 24 hour incubation, media was removed and substrates were washed with DPBS with calcium and magnesium. Cells were fixed with 1% formaldehyde for 9 minutes and washed with DPBS with calcium and magnesium. Cells were permeabilized with Triton-X 100 for 15 minutes and washed with DPBS with calcium and magnesium and blocked with 1% BSA for 1 hour at 37° C. Substrates were washed and primary antibody IST-4 (Sigma) for fibronectin that binds to the 5th type III repeat of human plasma fibronectin was incubated at a 1:100 dilution in PBS overnight at 4° C. Substrates were washed and incubated with FITC-conjugated donkey anti-mouse IgG (Jackson Immunolabs, West Grove, Pa.) at a 1:200 dilution for 30 minutes at room temperature, and were then washed and incubated with Texas-red phalloidin (Molecular Probes, Eugene, Oreg.) for 20 minutes at room temperature. Substrates were washed and stored at 4° C. until image acquisition. […]

For `C[C@@H](N)[C@H]1CC[C@H](C(=O)Nc2ccncc2)CC1` [Y27632], the “effect on FNf-ANP induced matrix assembly by HFF” value ([1]; 3 μM Y27632 added 2 hours after seeding on FNf-ANP 1.70 μg/cm^2, overnight) was “abrogated” and the “fibronectin matrix fibrils in the extracellular space compared to control conditions” value ([1]; HFF on FNf-ANP treated with Y27632, image analysis) was “significantly decreased levels”.
For “FNf: recombinant GST fusion of fibronectin fragment comprising repeats III9 and III10, adsorbed alone as comparator”, the “cell spreading / morphology at 1 hour” value (fibroblasts [2]; 2.2 μg/cm^2, 1 hour) was “some filopodial projections”, the “cell morphology at 5 hours” value (fibroblasts [2]; 2.2 μg/cm^2, 5 hours) was “well-spread with well defined stress fibers” and the “cell attachment at a specific ligand density” value (fibroblasts [3]) was “significant attachment, but to a lesser degree”. For the same molecule, the cell attachment ([4]; 60 minutes, lowest amount of ligand tested) was “no detectable attachment”, the “cellular adhesion over the FNf concentration range” value ([4]; adsorbed FNf up to the highest concentration) was “no significant increase in cellular adhesion” and the “deposition of fibronectin into the ECM when presented via the culture medium” value ([1]; HFF on bare coverglass, ligand added to media, overnight) was “not sufficient”. The “cell spreading (morphology)” value ([5]; 45 minutes post seeding) was “minimally spread”, the cell morphology ([5]; 5 hours of culture, F-actin staining) was “flattened, well-spread appearance” and the “shape factor, (perimeter)^2/(4π(area))” value ([5]; 5 hours, about 25 cells per condition, all FNf densities) was “around 4”.
With “whole length mouse fibronectin: whole length mouse fibronectin (Innovative Research) adsorbed as control substrate” the “cell spreading / morphology on control substrates” value (fibroblasts [2]; control substrates) was “polarized morphology consistent with migrating cells” and the “fibronectin fibrils on control substrates” value [6] was “Fibrils were not seen”.
